PMC3039689, “Identification of Small Molecule Lead Compounds for Visceral Leishmaniasis Using a Novel Ex Vivo Splenic Explant Model System” (PLoS Neglected Tropical Diseases, 2011)
Where a name gives a salt, the structure may show the parent alone. Read-outs that look alike come from different tables or passages of the source.

Experiments:
HepG2 cells = assay: Cell toxicity (CC50) in the HepG2 cell line, CellTiter-Glo; format: cell-based, human
Protocol: (§1) After 24 hours of culture at 37°C the number of viable cells was determined by quantification of the ATP present in the cell using the CellTiter-Glo luminescent Cell Viability Assay (Promega).

[1] = target: luciferase-transfected Leishmania donovani; assay: Anti-leishmanial efficacy (EC50) in the ex vivo splenic explant model; format: cell-based
Protocol: To establish the plate assay for drug screening, the spleens from 2 infected hamsters were aseptically removed and placed in a Petri dish containing 5 mL of Collagenase D (Roche) at 2 mg/mL of buffer (10 mM Hepes pH 7.4, 150 mM NaCl, 5 mM KCl, 1 mM MgCl2, 1.8 mM CaCl2). The spleen was infiltrated by injection with approximately 2 mL of Collagenase solution, the tissue was cut into small pieces using sharp scissors, and incubated for 20 minutes at 37°C. The cell suspension and remaining tissue fragments were gently passed through a 100 µm cell strainer (B–D) to obtain a single cell suspension, which was washed twice by centrifugation (500 g for 7 min at 4°C) and re-suspended in culture medium composed of DMEM (Gibco), 5% FBS, 1 mM Sodium pyruvate (Gibco), 1X MEM amino acids solution (Sigma), 0.02% v/v/EDTA, 10 mM HEPES buffer (Cellgro) and 100 IU/mL Penicillin/100 […] Streptomycin solution (Cellgro).
The anti-leishmanial efficacy of the compounds was determined using the splenic explant model in a 96-well plate format. […] Because variation in the parasite burden between different explant cultures was expected, the concentration of cells used in each experiment was adjusted to give approximately 100 counts by luminometry (equivalent to ∼240,000 parasites). The number of surviving parasites was determined by luminometry as described above.

[2] = Cell toxicity (CC50) in the HepG2 cell line, CellTiter-Glo; format: cell-based, human; conditions: human
Protocol: as §1

[3] = HepG2 cell line, 24 h, ATP luminescence, compound from screened library, read-out: HepG2 CC50 Mean
[4] = ex vivo splenic explant, 48 h, luminometry, at least two experiments, compound from screened library, read-out: Ex vivo model EC50 Mean
[5] = 50% reduction in parasite counts in the ex vivo model, read-out: EC50 Mean (Table S2)
[6] = Leishmania donovani, ex vivo splenic explant, 48 h, luminometry, at least two experiments, compound from screened library, read-out: Ex vivo model EC50 Mean
[7] = Leishmania donovani, 48 h, ex vivo splenic explant, 48 h, luminometry, at least two experiments, compound from screened library, read-out: Ex vivo model EC50 Mean
[8] = HepG2 cells, HepG2 cell line, 24 h, ATP luminescence, compound from screened library, read-out: HepG2 CC50 Mean
[9] = Leishmania donovani, 50% reduction in parasite counts in the ex vivo model, read-out: EC50 Mean (Table S2)

Row | Molecule | CC50 (HepG2 cells; [3]) [µM] | EC50 [1, 4] [µM] | also measured
1 | O=[As](O)(O)c1ccc(Cc2ccc([As](=O)(O)O)cc2)cc1 [4-[(4-arsonophenyl)methyl]phenyl]arsonic acid] | 34.5 | 6.9 | 
2 | CC(C)c1ccc2c(c1)CC[C@H]1[C@](C)(CN)CCC[C@]21C [Dehydroabietylamine] |  | 5.8 | CC50 (HepG2 cells): 32.9 µM
3 | CC1CC(C)(O)CC(C(O)CC2CC(=O)NC(=O)C2)C1=O (stereo not drawn) [Streptovitacin A] | 32.4 | 3.7 | 
4 | 7-(2-(6-Ethoxy-1-methyl-1.lambda.~5~-quinolin-2-yl)vinyl)-5-methyl-8-quinolinol; Quinolinium, {6-ethoxy-2-[2-(8-hydroxy-5-methyl-7-quinolyl)vinyl]-1-methyl-} iodide | 46 | 5.7 | 
5 | CC[C@@H](C(=O)[C@@H](C)[C@@H](O)[C@H](C)CCc1ccc(C)c(O)c1C(=O)O)[C@H]1O[C@](CC)([C@H]2CC[C@](O)(CC)[C@H](C)O2)C[C@@H]1C [Lasalocid Sodium] | 45.8 | 8.9 | 
6 | C=C1C(=O)[C@]23[C@H](O)[C@H]1CC[C@H]2[C@@]12CO[C@]3(O)[C@@H](O)[C@@H]1C(C)(C)CC[C@@H]2O [Rubescensin A] |  | 11 | CC50 (HepG2 cells): 69.1 µM
7 | CSc1ccc2c(c1)N(CCCN(C)C)c1ccccc1S2 [Thiomethylpromazine] | 83.9 | 13 | 
8 | CCCCCCc1ccc(O)cc1O.Nc1c2ccccc2nc2ccccc12 [Acrisorcin] | 50.9 | 8 | 
9 | CCCC(c1cc(C(C)(C)C)c(O)cc1C)c1cc(C(C)(C)C)c(O)cc1C [Sumilit BBM] | 71.7 | 9.4 | 
10 | Cc1cc(C(C)(C)CC(C)(C)C)ccc1OCCOCC[N+](C)(C)Cc1ccccc1 [Methylbenzethonium Chloride] |  | 7.1 | CC50 (HepG2 cells): 53.2 µM; EC50 [1, 5]: 7.06 µM
11 | OC(c1cc(-c2ccc(Cl)cc2)nc2ccccc12)C1CCCCN1 (stereo not drawn) [2-(4-chlorophenyl)quinolin-4-yl]-(2-piperidyl)methanol] | 38.4 | 6.7 | 
12 | Benzalkonium Chloride | 38.6 | 6.4 | 
13 | CCC1=C(CC2NCCc3cc(OC)c(OC)cc32)CC2c3ccccc3CCN2C1 (stereo not drawn) [2-[(6,7-dimethoxy-1,2,3,4-tetrahydroisoquinolin-1-yl)methyl]-3-ethyl-4,6,7,11b-tetrahydro-1H-pyrido[2,1-a]isoquinoline] | 76.2 | 8.8 | 
14 | c1ccc(-c2ccc(-c3ccc(C4=NCCN4)cc3)o2)cc1 [2-[4-(5-phenylfuran-2-yl)phenyl]-4,5-dihydro-1H-imidazole chloride] |  | 7.5 | CC50 (HepG2 cells): 42.9 µM
15 | c1ccc2c(c1)Sc1ccccc1N2CC1CN2CCC1CC2 (stereo not drawn) [Mequitazine,10-(3-Quinuclidinylmethyl)phenothiazine] | 50.3 | 8.5 | 
16 | CCN(CC)COC(=S)S [Diethylaminomethoxymethanedithioic acid] | 83.7 | 3.7 | 
17 | O=c1c2ccccc2sc2c(CO)ccc(NCCN3CCCCC3)c12 [Thioxanthen-9-one, 4-(hydroxymethyl)-1-[(2-piperidinoethyl)amino]-; 9H-Thioxanthen-9-one, 4-(hydroxymethyl)-1-[[2-(1-piperidinyl)ethyl]amino]-] | 56 | 9.1 | 
18 | C=C1C(=O)O[C@@H]2[C@H]1CC[C@H](C)[C@]1(O)C=CC(=O)[C@@]21C [Parthenicin] | 64.5 | 8.7 | 
19 | COc1ccc2c(=O)oc3c(OC)cc(CCN(C)C)c4c(=O)oc1c2c34 [Thaspine Acetate] | 51.4 | 2.7 | 

Row | Molecule | CC50 (HepG2 cells; [3]) [µM] | EC50 [1, 4] [µM] | also measured
20 | O=C1C=C2C=C[C@H]3C[C@]2(O1)[C@@H]1CCCCN13 [Virosecurinine] | 121 | 8.8 | 
21 | CCCCCCCCCCCCCCCC[N+](C)(C)C [Cetrimonium Bromide] |  |  | CC50 [2, 3]: 42.9 µM; EC50 [1, 6]: 6.1 µM
22 | C[C@@H]1C[C@H]2CC[C@H](O2)[C@H](C)C(=O)O[C@@H](C)C[C@@H]2CC[C@@H](O2)[C@@H](C)C(=O)O[C@H](C)C[C@H]2CC[C@H](O2)[C@H](C)C(=O)O[C@@H](C)C[C@@H]2CC[C@@H](O2)[C@@H](C)C(=O)O1 [Nonactin] |  |  | CC50 [2]: 23.7 µM; EC50 [1, 6]: 0.1 µM
23 | COc1ccc2cc1Oc1ccc(cc1)C[C@H]1c3c(cc4c(c3Oc3cc5c(cc3OC)CCN(C)[C@@H]5C2)OCO4)CCN1C [Cepharanthine] |  |  | CC50 at 24 h [2]: 86.3 µM; EC50 [1, 7]: 11.4 µM
24 | CC[C@@H](C(=O)[C@@H](C)[C@@H](O)[C@H](C)[C@@H]1O[C@@H]([C@@H](CC)C(=O)O)CC[C@@H]1C)[C@H]1O[C@]2(C=C[C@@H](O)[C@]3(CC[C@@](C)([C@H]4CC[C@](O)(CC)[C@H](C)O4)O3)O2)[C@H](C)C[C@@H]1C [Salinomycin, Sodium] | 48.4 | 7.4 | EC50 [1, 5]: 7.44 µM
25 | CN(C)CC1CCC2=C(C1=O)C(c1ccc(Cl)c(Cl)c1)C1=C(CCC(CN(C)C)C1=O)O2 (stereo not drawn) [9-(3,4-Dichlorophenyl)-2,7-bis(dimethylaminomethyl)-3,4,5,6,7,9-hexahydro-2H-xanthene-1,8-dione] |  |  | CC50 at 24 h [2, 8]: 49.8 µM; EC50 [1, 7]: 9.4 µM
26 | CC1=CC(C2/C(=N/O)C=C(C)CC2(C)C)C(O)C(C)(C)C1 (stereo not drawn) [Cristox Oxime] | 140 | 10.9 | 
27 | Cc1cc(N2CCCCC2)nc2ccc(Cc3ccc4nc(N5CCCCC5)cc(C)c4c3)cc12 [4-methyl-6-((4-methyl-2-(1-piperidinyl)-6-quinolinyl)methyl)-2-(1-piperidinyl)quinoline] |  |  | CC50 at 24 h [2]: 109 µM; EC50 [1, 6]: 18.4 µM
28 | OC(c1cc(-c2ccccc2)nc2c1ccc1ccccc12)C1CCCCN1 (stereo not drawn) [2-phenylbenzo[h]quinolin-4-yl)(2-piperidinyl)me] | 28.7 | 5 | 
29 | C=C1C(=O)O[C@H]2C[C@@H]1[C@@H](OC(C)=O)C/C(C)=C/CC/C(C)=C\CC[C@@]2(C)O [Crassin] |  |  | CC50 at 24 h [2, 8]: 51.6 µM; EC50 [1, 7]: 8.9 µM
30 | CC[n+]1c(-c2ccccc2)c2cc(N)ccc2c2ccc(N)cc21 [Homidium Bromide] |  |  | CC50 [2, 3]: 58.8 µM; EC50 [1, 9]: 11.9 µM; EC50 [1, 6]: 11.9 µM
31 | CC(C)=CC(=O)O[C@H]1[C@H]2[C@H](OC(=O)[C@H]2C)[C@H](O)[C@@H](C)[C@@H]2C=CC(=O)[C@]21C [Fastigilin B] | 44.8 | 8.9 | 
32 | CCCCCCCCCCC[C@@H](C[C@@H]1OC(=O)[C@H]1CCCCCC)OC(=O)[C@H](CC(C)C)NC=O [Orlistat] |  |  | CC50 at 24 h [2]: 161 µM; EC50 [1, 7]: 24.9 µM
33 | CCN(CC)CCN1C(=O)c2cccc3cc(N)cc(c23)C1=O [1H-Benz[de]isoquinoline-1,3(2H)-dione, 5-amino-2-[2-(diethylamino)ethyl]-] |  |  | CC50 [2, 3]: 69.3 µM; EC50 [1, 6]: 8.4 µM
34 | Cc1nccc2c1[nH]c1cc(O)ccc12 [Harmol Hydrochloride] |  |  | CC50 [2, 3]: 60.2 µM; EC50 [1, 6]: 11.2 µM
35 | CCN(CC)CC(O)c1ccc2ccc3ccccc3c2c1 (stereo not drawn) [3-Phenanthrenemethanol, α-[ (diethylamino)methyl]-, hydrochloride] | 54.2 | 8.9 | 
36 | Cc1cc(O)ccc1Cl [Chlorocresol] |  |  | CC50 at 24 h [2, 8]: 138 µM; EC50 [1, 9]: 8.02 µM; EC50 [1, 6]: 8 µM
37 | CCC1=C(CC2NCCc3ccccc32)CC2c3cc(OC)c(OC)cc3CCN2C1 (stereo not drawn) [3-ethyl-9,10-dimethoxy-2-(1,2,3,4-tetrahydro-isoquinolin-1-ylmethyl)-1,6,7,11b-tetrahydro-4H-pyrido(2,1-a)isoquinoline] |  |  | CC50 [2, 3]: 24 µM; EC50 [1, 6]: 2.7 µM
